Test results published in patent US20070116839A1, “High-Potency Sweetener Composition With C-Reactive Protein Reducing Substance and Compositions Sweetened Therewith” (THE COCA-COLA COMPANY, priority 2005, published 2007).

How the values were obtained:
[1] = Rate of dissolution in H2O at 25° C. of rebaudioside A polymorph and amorphous forms; format: physicochemical
[2] = format: physicochemical
Procedure: A solution of rebaudioside A (>97% pure by HPLC ) was prepared in double distilled water (12.5 gm in 50 mL, 25% concentration) by stirring the mixture at 40° C. for 5 minutes. An amorphous form of rebaudioside A was formed by immediately using the clear solution for spray drying with the Lab-Plant spray drier SD-04 instrument (Lab-Plant Ltd., West Yorkshire, U.K.). The solution was fed through the feed pump into the nozzle atomizer which atomized it into a spray of droplets with the help of a constant flow of nitrogen/air. […] This dry powder (11-12 g, H2O6.74%) was discharged continuously from the drying chamber and was collected in a bottle.

[3] = Sweetness stated as sucrose equivalent; format: in vivo
[4] = Sensory evaluation of sweetness linger and sugar-like taste by expert panel; format: in vivo; design: key: 0=no sweetness linger; 1=very slight sweetness linger; 2=slight sweetness linger; 3=moderate sweetness linger; 4=moderately high sweetness linger; 5=high sweetness linger; conditions: for Sweetness linger: scale 0-5; for Sweetness Linger rating (defined for the protocol): scale anchors: sucrose, 500 ppm REBA control sample
Procedure: In a particular embodiment, a panel of assessors is used to measure the reduction of sweetness linger. Briefly described, a panel of assessors (generally 8 to 12 individuals) is trained to evaluate sweetness perception and measure sweetness at several time points from when the sample is initially taken into the mouth until 3 minutes after it has been expectorated. […] A decrease in score for a time point measured after the sample has cleared the mouth indicates there has been a reduction in sweetness perception.
The panel of assessors may be trained using procedures well known to those of ordinary skill in the art. In a particular embodiment, the panel of assessors may be trained using the Spectrum™ Descriptive Analysis Method (Meilgaard et al, Sensory Evaluation Techniques, 3rd edition Chapter 11). Desirably, the focus of training should be the recognition of and the measure of the basic tastes; specifically, sweet. In order to ensure accuracy and reproducibility of results, each assessor should repeat the measure of the reduction of sweetness linger about three to about five times per sample, taking at least a five minute break between each repetition and/or sample and rinsing well with water to clear the mouth.
Generally, the method of measuring sweetness comprises taking a 10 mL sample into the mouth, holding the sample in the mouth for 5 seconds and gently swirling the sample in the mouth, rating the sweetness intensity perceived at 5 seconds, expectorating the sample (without swallowing following expectorating the sample), rinsing with one mouthful of water (e.g., vigorously moving water in mouth as if with mouth wash) and expectorating the rinse water, rating the sweetness intensity perceived immediately upon expectorating the rinse water, waiting 45 seconds and, while wating those 45 seconds, identifying the time of maximum perceived sweetness intensity and rating the sweetness intensity at that time (moving the mouth normally and swallowing as needed), rating the sweetness intensity after another […], rating the sweetness intensity after another 60 seconds (cumulative 120 seconds after rinse), and rating the sweetness intensity after still another 60 seconds (cumulative 180 seconds after rinse), Between samples take a 5 minute break, rinsing well with water to clear the mouth.
Sensory evaluation of the samples prepared in Example Set G was carried out under the following protocol, similar to that described hereinabove. In this test protocol, none of the samples were swallowed. […] Immediately upon sensing maximal sweetness, the sample was expectorated, the mouth was rinsed with water and the rate of sweetness decay (“Sweetness Linger”) was measured, where attention was focused on the sweetness 3-4 min after the water rinse. […]

| SMILES | Rate of dissolution in H2O at 25° C. [1] | Sweetness Linger rating (defined for the protocol) [4] | other results |
| --- | --- | --- | --- |
| C=C1C[C@@]23CC[C@H]4[C@@](C)(CCC[C@@]4(C)C(=O)O[C@@H]4O[C@H](CO)[C@@H](O)[C@H](O)[C@H]4O)[C@@H]2CC[C@]1(O[C@@H]1O[C@H](CO)[C@@H](O)[C@H](O[C@@H]2O[C@H](CO)[C@@H](O)[C@H](O)[C@H]2O)[C@H]1O[C@@H]1O[C@H](CO)[C@@H](O)[C@H](O)[C@H]1O)C3 [Form 1, rebaudioside A] | < 0.2 %/60 minutes |  |  |
| C=C1C[C@@]23CC[C@H]4[C@@](C)(CCC[C@@]4(C)C(=O)O[C@@H]4O[C@H](CO)[C@@H](O)[C@H](O)[C@H]4O)[C@@H]2CC[C@]1(O[C@@H]1O[C@H](CO)[C@@H](O)[C@H](O[C@@H]2O[C@H](CO)[C@@H](O)[C@H](O)[C@H]2O)[C@H]1O[C@@H]1O[C@H](CO)[C@@H](O)[C@H](O)[C@H]1O)C3 [Form 2, rebaudioside A] | < 30 %/5 minutes |  |  |
| C=C1C[C@@]23CC[C@H]4[C@@](C)(CCC[C@@]4(C)C(=O)O[C@@H]4O[C@H](CO)[C@@H](O)[C@H](O)[C@H]4O)[C@@H]2CC[C@]1(O[C@@H]1O[C@H](CO)[C@@H](O)[C@H](O[C@@H]2O[C@H](CO)[C@@H](O)[C@H](O)[C@H]2O)[C@H]1O[C@@H]1O[C@H](CO)[C@@H](O)[C@H](O)[C@H]1O)C3 [Form 3, rebaudioside A] | > 30 %/5 minutes |  |  |
| C=C1C[C@@]23CC[C@H]4[C@@](C)(CCC[C@@]4(C)C(=O)O[C@@H]4O[C@H](CO)[C@@H](O)[C@H](O)[C@H]4O)[C@@H]2CC[C@]1(O[C@@H]1O[C@H](CO)[C@@H](O)[C@H](O[C@@H]2O[C@H](CO)[C@@H](O)[C@H](O)[C@H]2O)[C@H]1O[C@@H]1O[C@H](CO)[C@@H](O)[C@H](O)[C@H]1O)C3 [Form 4, rebaudioside A] | > 35 %/5 minutes |  | Solubility in water at room temperature [2]: > 35,0% |
| C=C1C[C@@]23CC[C@H]4[C@@](C)(CCC[C@@]4(C)C(=O)O[C@@H]4O[C@H](CO)[C@@H](O)[C@H](O)[C@H]4O)[C@@H]2CC[C@]1(O[C@@H]1O[C@H](CO)[C@@H](O)[C@H](O[C@@H]2O[C@H](CO)[C@@H](O)[C@H](O)[C@H]2O)[C@H]1O[C@@H]1O[C@H](CO)[C@@H](O)[C@H](O)[C@H]1O)C3 [REBA, rebaudioside A] |  | 5 | Sweetness equivalent to sucrose ([3]; 180 ppm rebaudioside A in beverage diluted 1:1 with rebaudioside A/citrate composition): 5 % sucrose; Sweetness equivalent to sucrose ([3]; 400 ppm REBA in citric acid/potassium citrate composition): 8 g sucrose; Sweetness linger ([4]; Example Set G: 400 ppm REBA in citric acid/potassium citrate composition equivalent to diet lemon-lime beverage, with additive, sugar control 8 g in 100 ml citrate buffer): 5; Sweetness linger ([4]; Example Set H: 500 ppm REBA (H41: 360 ppm) in carbon-treated water, phosphoric acid (75%) to pH 2.4-2.5, with additive, sugar control 10 g in 100 ml): 5 |
| OC[C@H]1O[C@@](CO)(O[C@H]2O[C@H](CO)[C@@H](O)[C@H](O)[C@H]2O)[C@@H](O)[C@@H]1O [sucrose] |  | 0 |  |
